PMC9123247 (Drug Design, Development and Therapy, 2022)
Read-outs that look alike come from different tables or passages of the source.

Tests used:
[1] = test system: A549 lung cancer cell line; assay: MTT anti-proliferative assay, lung cancer cell line A549; format: cell-based; settings: Homo sapiens, A549, read-out: IC50 (µM) A549, MTT assay, lung cancer cell line A549; average ± standard deviation of independent triplicates
[2] = test system: T-47D breast cancer cell line; assay: MTT anti-proliferative assay, breast cancer cell line T-47D; format: cell-based; settings: Homo sapiens, T47D

Row | SMILES | IC50 [1] [µM] | IC50 ([2]; read-out: IC50 (µM) T-47D, MTT assay, breast cancer cell line T-47D, average ± standard deviation of independent triplicates) [µM] | IC50 ([2]; read-out: IC50 (µM) T-47D) [µM]
1 | C#Cc1cccc(Nc2ncnc3cc(OCCOC)c(OCCOC)cc23)c1 [Erlotinib] | 5.73 ± 0.69 | 8.14 ± 0.97 | 
2 | CN[C@@H]1C[C@H]2O[C@@](C)([C@@H]1OC)n1c3ccccc3c3c4c(c5c6ccccc6n2c5c31)C(=O)NC4 [Staurosporine] |  |  | 6.83 ± 1.03
